By Km is commonly meant the substrate concentration at which the rate is half of its maximum.

In this assay the test system is all wired variants (GDH-S247PDAz, FGM-S247PDAz, FGM-T558PDAz, FGM-S247PCA). The conditions noted are these: read-out: KM^app of all samples (electrochemical); glucose; range over all wired variants; 300 mV vs. Ag/AgCl.

In the case of `OC[C@H]1OC(O)[C@H](O)[C@@H](O)[C@@H]1O` (stereo partly shown) [glucose], the Km is 1550 to 1890 µM.

(Values after US12359238B2 (priority 2017, dated 2025).)
